The record followed here is patent US20260132160A1, “IRON REPLACEMENT TREATMENTS” (The General Hospital Corporation, priority 2022, published 2026).

“Also recorded” adds a separate entry of the source.

For series [1], the system named is normal male C57BL/6 mice. The series is described as follows: Serum nonheme iron parameters after i.v. injection (ferrozine assay). In kind it is in vivo, mouse. Here is the method: The in vivo efficacy of Fe-BBG as a direct-to-transferrin Fe replacement drug was preliminary evaluated in normal male C57BL/6mice. Mice received either 0.01 mmol Fe-BBG/kg (0.56 μg Fe per g body weight), 0.1 mmol Fe-BBG/kg (5.6 μg Fe per g body weight), or placebo (saline vehicle) via tail vein injection and were euthanized either 5 min, 60 min or 100 min post-injection. Serum nonheme iron parameters were then quantified using the spectrophotometric ferrozine assay.
FIG. 9 compares serum iron, total iron binding capacibity (TIBC), and unbound iron binding capacity (UIBC), recorded in mice treated with placebo and in serum harvested either 5 min, 60 min, or 100 min after Fe-BBG injection. The percentage transferrin saturation (% TSAT) was calculated at the 60 min and 100 min time points, at which point Fe-BBG and the BBG ligand remaining after trans-chelation with apo-transferrin had diminished to levels that will not interfere with the spectrophotometric assay.

The test system of series [2] is Tmprss6 knockout mice. Kind of series: Therapeutic efficacy in mouse model of iron refractory iron deficiency anemia. In kind it is in vivo. On the procedure: Tmprss6 knockout mice received 29 intraperitoneal injections each containing 25 μg Fe as Fe-BBG (1.3±0.18 μg Fe per gram body weight, N=5 mice, 2 male, 3 female) or containing saline (placebo, N=5 mice, 2 male, 3 female) over 15 days. The cumulative dose of Fe was 725 μg Fe (37±0.53 μg Fe per gram body weight). The mice were euthanized 120 min after the final injection. Blood was harvested for measurement of complete blood counts, and nonheme Fe parameters. Bone marrow and liver tissue were analyzed by qPCR for expression of genes related to erythropoietic activity, Fe exposure, oxidative stress, and inflammation, the data are tabulated in FIG. 15. Clinical chemistry was also recorded, see Example 16 below. FIG. 15 data are shown as mean±standard deviation. Statistical differences between groups were determined by two-tailed Student's t-test for normally distributed values or Mann-Whitney (/test for non-normally distributed values. Significant differences are indicated by *P<0.05, **P<0.01, ****P<0.0001.

Series [3] in a line: Labile iron in serum after i.v. injection (dihydrorhodamine 123 oxidation). In kind it is in vivo, mouse. Here is the method: These are the same serum samples as in FIG. 9. The assay was performed as described in Blood 2003, 102 (7), 2670-2677.
To quantify labile iron released by Fe-BBG after intravenous injection, male C57BL/6 mice received either 0.01 mmol Fe-BBG/kg (0.56 μg Fe per g body weight), 0.1 mmol Fe-BBG/kg (5.6 μg Fe per g body weight), or placebo (saline vehicle) via tail vein injection and were euthanized either 5 min, 60 min or 100 min post-injection. Blood serum was harvested and labile Fe in each sample quantified by spectrophotometrically monitoring the rate of dihydrorhodamine 123 oxidation under redox forcing conditions, as reported in Blood 2003, 102 (7), 2670-2677 and described below:
Quadruplicates of 20 μL serum were transferred to clear-bottom 96-well plates. To 2 of the wells was added 180 μL iron-free HEPES buffered saline (HBS) (preincubated at 37° C.) containing 40 μM ascorbate and 50 µM dihydrorhodamine 123 (DHR). […] The kinetics of fluorescence increase were followed at 37° C. in a Molecular Devices FlexStation 3 microplate reader with 485/538 nm excitation/emission filter pair, for 40 minutes, with readings every 2 minutes. The slopes (R) of DHR fluorescence intensity with time were calculated from measurements taken between 16 and 40 minutes and are given as FU·minute^−1 (fluorescence units per minute). […]

The nature of series [4]: Stability of Fe-BBG against trans-chelation by endogenous chelators (UV-vis). In kind it is physicochemical. The text has this: In other words, the ligand BBG binds to Fe^3+ with an estimated 230±40 times higher affinity than citrate.
The nature of series [5]: Ascorbate reduction challenge (UV-vis). In kind it is physicochemical. The conditions noted are these: 0.1 mM Fe-BBG, 0.1 mM sodium ascorbate, pH 7.4.
Setting [6] is: 0.56 or 5.6 μg Fe per g i.v., 5, 60, 100 min, vs placebo.
[7] abbreviates: 29 i.p. injections of 25 μg Fe over 15 days, vs placebo.
Setting [8] is: 120 min after final injection, vs placebo.

As for `O.O.O=C([O-])CC[C@H]1C(=O)[O][Fe]2[O]c3ccccc3CN1Cc1ccccc1[O]2` [Fe-BBG], in series [1] (setting [6]), the serum iron entry is listed as “rapidly raises” and the “total iron binding capacity (TIBC)” value is “rapidly raises; also recorded: does not decrease”. Further, in series [1] (0.56 or 5.6 μg Fe per g i.v., vs placebo), the “unbound iron binding capacity (UIBC)” value is “does not reduce UIBC significantly”. Besides, the “percentage transferrin saturation (% TSAT)” value in series [1] (60 and 100 min, vs placebo) is “elevates % TSAT significantly”. The “total serum nonheme Fe relative to placebo treated mice” value in series [1] (5 min after 5.6 μg Fe/g) is listed as 25 fold. Also, in series [2] (setting [7]), the hematocrit entry is recorded as “increased significantly”, the hemoglobin result was “significant elevation”, the mean corpuscle volume result is listed as “significantly increased” and the red cell width result is “significantly increased”. For the same compound, in series [2] (setting [8]), the “mean % TSAT increase” value is ~7 fold, the “serum Fe” value is recorded as “elevated”, the “total iron binding capacity (TIBC)” value is “unchanged relative to placebo” and the “unbound iron binding capacity (UIBC)” value was “concomitant decrease”. In series [2] (120 min after the final injection), the “clearance of Fe-BBG from serum” value was “cleared entirely”. Moreover, the “bone marrow erythroferrone (Erfe) expression” value in series [2] (qPCR) is recorded as “significantly downregulated”. Further, in series [2] (qPCR, bone marrow), the “glycophorin A (GypA) expression” value was “downregulated” and the “transferrin receptor type 1 (Tfrc) expression” value is “downregulated”. In addition, the other hematology parameters result in series [2] (vs placebo) is listed as “No noteworthy differences”. Also, the “labile iron release in vivo” value in series [3] (0.56 or 5.6 μg Fe per g, 5, 60, 100 min) is “does not contribute detectable quantities of labile Fe; also recorded: does not release labile iron in vivo”. The “labile Fe concentration in serum” value in series [3] (5 min after injection of 5.6 μg Fe/g) was < 0.2 µM. Besides, the “stability against trans-chelation by endogenous chelators” value in series [4] is reported as “stable against trans-chelation reactions”. Also, the “Kcomp for challenge with citrate” value in series [4] (0-10 molar equivalents citrate, absorbance at 465 nm, pH 7.4) worked out at 0.006±0.002. The “UV-vis traces in presence of competing chelators” value in series [4] (0.1 mM Fe-BBG, up to 100 molar equivalents bicarbonate, acetate, lactate, phosphate, pH 7.4 50 mM HEPES) was “remain unchanged”. Further, in series [5], the “462 nm absorption peak upon challenge with ascorbate” value was “remains unchanged”.
